In article PMC9913425, “Pentacyclic Triterpenoids-Based Ionic Compounds: Synthesis, Study of Structure–Antitumor Activity Relationship, Effects on Mitochondria and Activation of Signaling Pathways of Proliferation, Genome Reparation and Early Apoptosis” (Cancers, 2023):
Structures can show the parent of a compound that is named as a salt.

Key:
ATR kinase = assay: Luminex xMAP DNA Damage/Genotoxicity panel, ATR kinase content; format: cell-based; conditions: Jurkat cells; 12a 0.006 µM, 13d 0.004 µM per 100,000 cells; 6 and 12 h
Chk2 = assay: Luminex xMAP DNA Damage/Genotoxicity panel, phosphorylated Chk2; format: cell-based; conditions: Jurkat cells; 12a 0.006 µM, 13d 0.004 µM per 100,000 cells; 6 and 12 h
Description: [Worded in the source for another target; used here, by the source, with some conditions changed.] (§1) The determination of proteins in a cell by Luminex xMAP technology is characterized by the presence of multiplex multiparametric analysis with the simultaneous use of a multiplex of antibodies with a fluorescent label and magnetic particles, thereby resulting in an increase in the sensitivity of the technique and expansion of the dynamic range, as well as an increase in detection accuracy. Luminex XMAP technology provides a simultaneous analysis of a sufficient number of different proteins in various types of biological fluids (plasma, serum, cerebrospinal fluid, follicular fluid, tissue lysate, etc.) and in cell supernatants. Consequently, multiplexing saves time/costs and ensures the same conditions for the measurements, which is essential for significance and statistical processing.
(§2) Magnetic microspheres (stained inside with two fluorescent dyes) in combination with monoclonal antibodies against the analyzed analytes (the main intracellular kinases in this case) are incubated with the samples and standards; then, the samples/standards are incubated with biotinylated monoclonal antibodies against the analyzed analytes and, finally, with a solution of streptavidin–phycoerythrin. The Luminex technology identifies the different proteins present in each well and converts the mean fluorescence intensity (MFI) of each measured cytokine to pg/mL using software and standard curves. This approach is successfully applied in fundamental and clinical research. In this work, we analyzed various protein analytes that make up the phosphorylated and non-phosphorylated fractions of the main kinases in the signaling pathways: CREB, JNK, NFkB, p38, ERK1/2, Akt, p70S6K, STAT3, STAT5 proteins in six samples of lysates of Jurkat tumor cells by Luminex technology (MILLIPLEX® MAP 9-Plex Multi-Pathway 9-plex Magnetic Bead Kit).

Chk1 = assay: Luminex xMAP DNA Damage/Genotoxicity panel, phosphorylated Chk1; format: cell-based; conditions: Jurkat cells; 12a 0.006 µM, 13d 0.004 µM per 100,000 cells; 6 and 12 h
Description: [Worded in the source for another target; used here, by the source, with some conditions changed.] as §1, §2

γH2AX = assay: Luminex xMAP DNA Damage/Genotoxicity panel, phosphorylated γH2AX; format: cell-based; conditions: Jurkat cells; first six hours of incubation
Description: as §1, with “processing. Simultaneous measurement of cytokines by bead multiplex analysis has certain similarities with ELISA, in particular the use of antibodies, but has a fundamental difference in using magnetic fluorescent beads coupled to antikinase monoclonal antibodies.” for “processing.”
as §2
Phosphorylation of histone H2AX at serine 139 (γH2AX) is an early stage in the cellular response to DNA damage, when the damage brings about formation of a double-strand break (DSB). γH2AX foci, considered as markers of DNA double-strand breaks, are easily detected by immunofluorescence microscopy and flow cytometry. The two main signaling pathways ATM/Chk2 and ATR/Chk1 respond to DNA damage and both lead to H2AX phosphorylation, but the ATR/Chk1 pathway causes γH2AX formation to a much lesser extent. The role of γH2AX in DNA repair is also discussed.
Incubation time with the test compounds was 6 and 12 h. p < 0.001 (***).

A2780 = assay: In vitro cytotoxicity, IC50 by flow cytometry (Guava ViaCount); format: cell-based, human
Experimental: (§3) Human cancer cell line HeLa, HL60, A2780 was obtained from the HPA Culture Collections (Salisbury, UK). Cells (Jurkat, K562, U937, Hek293, Fibroblasts) were purchased from Russian Cell Culture Collection (Institute of Cytology of the Russian Academy of Sciences, […], Russia) and cultured according to standard protocols and sterile technique. […] Cells were maintained in RPMI 1640 (Jurkat, K562, U937, HL60) (Gibco, Billings, MT, USA) supplemented with […], 10% FBS (Sigma) and 100 units/mL penicillin–streptomycin (Sigma). All types of cells were grown in an atmosphere of 5% CO2 at 37 °C. The cells were subcultured at 2–3 days intervals. Cells were then seeded in 24-well plates at 5 × 10^4 cells per well and incubated overnight. Jurkat, K562, U937, HL60 cells were subcultured at 2-day intervals with a seeding density of 1 × 10^5 cells per 24-well plates in RPMI with 10% FBS.
(§4) The antitumor activity of the synthesized ionic compounds was initially assessed in vitro on Jurkat, K562, U937, HL60, HEK293, A2780 cell lines, including the determination of IC50 by flow cytometry involving Guava ViaCount (Millipore) reagent kits.

HL60 = assay: as above; format: cell-based, human
Experimental: as §3, §4

U937 = assay: In vitro cytotoxicity, IC50 by flow cytometry (Guava ViaCount); format: cell-based
Experimental: as §3, §4

HEK293 = assay: as above; format: cell-based; conditions: conditionally normal
Experimental: as §3, §4

K562 = assay: as above; format: cell-based
Experimental: as §3, §4

Jurkat = assay: as above; format: cell-based; conditions: Jurkat cells
Experimental: as §3, §4

Jurkat cells [1] = assay: Apoptosis/necrosis induction (Annexin V Alexa Fluor488, 7AAD staining); format: cell-based; conditions: compound at IC50 concentration, incubation 2 h
Description: Multiparametric evaluation of marker molecules, along with the detection of damage to the mitochondrial membrane, makes it possible to clearly determine the type of cell death. The method of cell staining with three different dyes (Annexin V Alexa Fluor488, 7AAD and MitoSense Red) provides simultaneous specification of various aspects of the state of the cell membrane, the state of DNA and the viability of mitochondria; together, it is a reliable sign of intrinsic and mitochondrial apoptosis pathway. Normal cells with intact mitochondrial membranes have high MitoSense Red fluorescence, while cells with decoupled oxidation and phosphorylation have much lower fluorescence. […]
Figure 1 The ratio of the level of mito-damage and the level of apoptosis in Jurkat cells of ionic compounds based on ursolic, oleanolic and betulinic acids.

Jurkat cells [2] = assay: Cell cycle analysis (Guava Cell Cycle Reagent); format: cell-based; conditions: IC50 concentration, 24 h, flow histogram
Experimental: Our findings are consistent with the literature data that many ICs predominantly affect the G2 and S phases, reducing them.
The incubation time of ionic liquids with cells was 24 h. […] It is listed because the picture prints the label with values. / The fit parameters printed in each histogram (RMS, Mean G1, Mean G2, G2/G1, CV G1, CV G2) were left out as statistics of the cell-cycle model.

[3] = test system: mitochondria of Jurkat tumor cells; assay: Mitochondrial damage (MitoSense Red staining); format: cell-based; conditions: compound at IC50 concentration, incubation 2 h
[4] = Homo sapiens, A2780, A2780 cells
[5] = Homo sapiens, HL-60, HL60 cells
[6] = Homo sapiens, U-937, U937 cells
[7] = Homo sapiens, HEK293, HEK293 cells

CC(C)[C@@H]1NC(=O)[C@H](C)OC(=O)[C@@H](C(C)C)NC(=O)[C@@H](C(C)C)OC(=O)[C@H](C(C)C)NC(=O)[C@H](C)OC(=O)[C@@H](C(C)C)NC(=O)[C@@H](C(C)C)OC(=O)[C@H](C(C)C)NC(=O)[C@H](C)OC(=O)[C@@H](C(C)C)NC(=O)[C@@H](C(C)C)OC1=O [valinomycin]
level of ATR kinase (ATR kinase): elevated levels | content of phosphorylated checkpoint kinase Chk2 (Chk2): significantly decreases | content of phosphorylated checkpoint kinase Chk1 (Chk1): significantly decreases

CN[C@@H]1C[C@H]2O[C@@](C)([C@@H]1OC)n1c3ccccc3c3c4c(c5c6ccccc6n2c5c31)C(=O)NC4 [staurosporine]
content of phosphorylated checkpoint kinase Chk2 (Chk2): significantly decreases | increase in the phosphorylated γH2AX histone fraction (γH2AX): ~9000 times | content of phosphorylated checkpoint kinase Chk1 (Chk1): significantly decreases

CC(=O)O[C@H]1CC[C@@]2(C)C(CC[C@]3(C)C2CC=C2C4CC(C)(C)CC[C@]4(C(=O)OCCCCCCOC(=O)c4nccn4C)CC[C@]23C)C1(C)C (stereo partly drawn) [compound 3, 6-{[(1-Methyl-1H-imidazol-2-yl)carbonyl]oxy}hexyl (3β)-3-(acetyloxy)olean-12-en-28-oate]
IC50 (A2780; [4]): > 4000 nM | IC50 (HL60; [5]): > 4000 nM | melting point: 134 to 136 °C | IC50 (U937; [6]): > 4000 nM | IC50 (HEK293; [7]): > 4000 nM | IC50 (K562; Homo sapiens, K562, K562 cells): > 4000 nM | IC50 (Jurkat; Homo sapiens, Jurkat): > 4000 nM

CC(=O)O[C@H]1CC[C@@]2(C)C(CC[C@]3(C)C2CC=C2C4CC(C)(C)CC[C@]4(C(=O)OCCCCCCn4cc[n+](C)c4)CC[C@]23C)C1(C)C (stereo partly drawn) (as salt: bromide) [9d, 1-(6-{[(3β)-3-Acetyloxyolean-12-en-28-oyl]oxy}hexyl)-3-methylimidazolium bromide]
melting point: 151 to 153 °C

N#CC(C#N)=NNc1cccc(Cl)c1 [CCCP]
content of phosphorylated checkpoint kinase Chk2 (Chk2): significantly decreases | content of phosphorylated checkpoint kinase Chk1 (Chk1): significantly decreases

C[n+]1ccn(CCCCCCOC(=O)[C@]23CCC(C)(C)CC2C2=CCC4[C@@]5(C)CC[C@H](O)C(C)(C)C5CC[C@@]4(C)[C@]2(C)CC3)c1.O=C([O-])c1ccccc1O (stereo partly drawn) [13f, 1-(6-{[(3β)-3-Hydroxyolean-12-en-28-oyl]oxy}hexyl)-3-methylimidazolium Salicylate]
IC50 (A2780; A2780 cells): 18 ± 2 nM | IC50 (HL60; HL60 cells): 3 ± 1 nM | Apoptosis (%) Early (Jurkat cells [1]): 0.17% | Apoptosis (%) Late (Jurkat cells [1]): 35.95% | Apoptosis (%) Necrosis (Jurkat cells [1]): 11.07% | Freq Sub-G1 (hypodiploid cell population) (Jurkat cells [2]): 9.83% | IC50 (U937; U937 cells): 11 ± 1 nM | IC50 (HEK293; HEK293 cells): 37 ± 3 nM | IC50 (K562; K562 cells): 13 ± 1 nM | IC50 (Jurkat): 8 ± 1 nM | Mito-Damage (%) [3]: 49.43%

C[n+]1ccn(CCCCOC(=O)[C@]23CCC(C)(C)CC2C2=CCC4[C@@]5(C)CC[C@H](O)C(C)(C)C5CC[C@@]4(C)[C@]2(C)CC3)c1 (stereo partly drawn) (as salt: bromide) [9b, 1-(4-{[(3β)-3-Hydroxyolean-12-en-28-oyl]oxy}butyl)-3-methylimidazolium bromide]
melting point: 148 to 150 °C

CO[C@H]1C[C@@H]2CC[C@@H](C)[C@@](O)(O2)C(=O)C(=O)N2CCCC[C@H]2C(=O)O[C@H]([C@H](C)C[C@@H]2CC[C@@H](O)[C@H](OC)C2)CC(=O)[C@H](C)/C=C(\C)[C@@H](O)[C@@H](OC)C(=O)[C@H](C)C[C@H](C)/C=C/C=C/C=C/1C [rapamycin, reference compound]
level of ATR kinase (ATR kinase): elevated levels | content of phosphorylated checkpoint kinase Chk2 (Chk2): significantly decreases | increase in the phosphorylated γH2AX histone fraction (γH2AX): ~9000 times | content of phosphorylated checkpoint kinase Chk1 (Chk1): significantly decreases

CC(=O)O[C@H]1CC[C@@]2(C)C(CC[C@]3(C)C2CC=C2C4CC(C)(C)CC[C@]4(C(=O)OCCCCCCOC(=O)c4cncn4C)CC[C@]23C)C1(C)C (stereo partly drawn) [compound 4, 6-{[(1-Methyl-1H-imidazol-5-yl)carbonyl]oxy}hexyl (3β)-3-(acetyloxy)olean-12-en-28-oate]
IC50 (A2780; [4]): > 4000 nM | IC50 (HL60; [5]): > 4000 nM | melting point: 123 to 125 °C | IC50 (U937; [6]): > 4000 nM | IC50 (HEK293; [7]): > 4000 nM | IC50 (K562; Homo sapiens, K562, K562 cells): > 4000 nM | IC50 (Jurkat; Homo sapiens, Jurkat): > 4000 nM

N.N.[Cl][Pt][Cl] [cisplatin, reference compound]
Freq Sub-G1 (hypodiploid cell population) (Jurkat cells [2]): 32.27%

CC[N+](CC)(CC)CCCCCCOC(=O)[C@]12CCC(C)(C)CC1C1=CCC3[C@@]4(C)CC[C@H](O)C(C)(C)C4CC[C@@]3(C)[C@]1(C)CC2 (stereo partly drawn) [12e, N,N,N-Triethyl-N-(6-{[(3β)-3-hydroxyolean-12-en-28-oyl]oxy}hexyl)-aminium bromide]
IC50 (A2780; [4]): 16 ± 2 nM | IC50 (HL60; [5]): 3 ± 1 nM | Apoptosis (%) Early (Jurkat cells [1]): 0.76% | Apoptosis (%) Late (Jurkat cells [1]): 76.0% | Apoptosis (%) Necrosis (Jurkat cells [1]): 7.19% | IC50 (U937; [6]): 10 ± 1 nM | IC50 (HEK293; [7]): 34 ± 3 nM | IC50 (K562; Homo sapiens, K562, K562 cells): 13 ± 1 nM | IC50 (Jurkat; Homo sapiens, Jurkat): 7 ± 1 nM | Mito-Damage (%) [3]: 97.3%
